Where two headings read alike, the source gives them in different places.
Assays:
[1] = system: H. pylori; experiment: H. pylori growth with omeprazole, pentagastrin, amoxycillin and combinations, monitored spectrophotometrically; type: cell-based; conditions: single or triple-combined treatment; 18, 24, 46 hours; FIG. 3
Experimental: In an attempt to optimize the antibacterial formulation for eradication of H. pylori, the effect of pentagastrin and omeprazole provided in combination with amoxicillin was tested. Amoxicillin is a commonly accepted antibiotic used for H. pylori treatment. To investigate the effect of triple administration we tested the growth of bacteria in the presence of omeprazole, pentagastrin, amoxycillin, and their possible combinations was tested. Bacteria grown in the absence of any agent was used as a negative control. The level of bacterial growth was monitored spectrophotometrically after 18, 24, and 46 hours of treatment.

[2] = system: acid secretion; conditions: oral PG, cited from earlier work
[3] = system: gastric acid secretion; experiment: Gastric acid secretion after oral PG in fasted rats, no pylorus ligation; type: in vivo, Wistar Hanover rats; conditions: PG 50 μg P.O.
Experimental: (§1) Male and female Wistar Hanover rats, 7-10 weeks of age, were obtained from Harlan Laboratories (Rehovot, Israel). Animals were fed standard chow and received unlimited water supply. The animals were kept in automatically controlled temperature (between 20-24° C.), a 12-hour light/dark cycle, and 15 air changes an hour.
(§2) Rats were fasted (with water freely available) for 24 hours before experimentation. PG or saline were introduced into the stomach by means of a steel feeding needle. Thereafter, the animals were injected with Domitor and Ketaset; the abdominal wall was dissected and gastric fluid (approximately 30 μl) was collected by puncture with a needle (0.45×13 2006-09 Artsana S.P.A., Grandate (CO), Italy) at the indicated time points. Gastric juice was kept frozen at −80° C. until use. In some experiments, the rats were first anesthetized and dissected, after which test reagents were introduced by direct injection into the stomach. […]
(§3) Frozen gastric juice was defrosted at room temperature, mixed by vortexing, and centrifuged for 5 minutes at 14,000 RPM. […] The pH was measured, and NaOH (0.001 N) was added to the sample until pH 7 was reached, as determined by measuring pH using a pH meter (pH211, Hanna Instruments, 35030 Sameola di Rubano, Italy). […]

[4] = system: gastric mucosa; conditions: applied to the luminal surface, in vitro bullfrog model; cited from earlier work
[5] = Blood glucose levels in pylorus-ligated rats challenged with oral PG; type: in vivo; conditions: compared to controls, FIG. 6
Experimental: The observed effects of stimulation of gastric acid secretion may occur by different mechanisms. PG may be digested by gastric enzymes and the resulting free amino acids may stimulate acid secretion directly. Alternatively, the intact peptide may be actually absorbed from the gastric lumen and exert its effect on CCK-B receptors on the ECL and parietal cells. […] Since blood glucose levels reflect the activity of peripheral insulin, glucose levels were measured in the pylorus-ligated rats following the administration of PG or saline. These measurements served as a surrogate marker for PG-induced insulin release via activation of CCK-B receptors on the ECL and parietal cells. […] This observation supports the notion that the PG was absorbed intact and thereby could directly exert its effect on gastric tissue and stimulate secretion of gastric acid. […] B. Co-Administration of PG and Omeprazole

[6] = system: gastric acid secretion; experiment: Gastric acid secretion after oral PG in pylorus-ligated rats; type: in vivo, Wistar Hanover rats; conditions: PG 50 μg P.O., vs saline
Experimental: as §1, §2, §3

[7] = system: H. pylori (H-88 clinical isolate); experiment: H. pylori growth in liquid medium, CFU counts, 48 hours; type: cell-based; conditions: 48 hours incubation, FIG. 1A

Compound | inhibition of bacterial growth (spectrophotometric) [1] | effect on acid secretion ([2]; four normal subjects) | effect on acid secretion ([2]; three patients with gastrointestinal abnormalities) | time of maximal effect on acid secretion after oral PG ([3]; p=0.05) | secretion of acid into the gastric lumen ([3]; vs saline and S.C. PG, FIG. 4) | effect on gastric mucosa [4] | blood glucose levels [5] | gastric acid output ([6]; all time points, p<0.05, FIG. 5B) | gastric pH ([6]; p<0.05, FIG. 5A) | bacterial growth, CFU counts [7]
CC1(C)S[C@@H]2[C@H](NC(=O)[C@H](N)c3ccc(O)cc3)C(=O)N2[C@H]1C(=O)O [amoxicillin] | moderate inhibition |  |  |  |  |  |  |  |  | 
βAla-Trp-Met-Asp-PheNH2 [PG] | moderate inhibition | no effect | some effect | 30 min | significant secretion of acid | did not affect the gastric mucosa | decreased | significantly increased | decreased | inhibited bacterial growth to an extent similar to that of omeprazole
caerulein |  |  |  |  |  |  |  |  |  | inhibited bacterial growth to an extent similar to that of omeprazole
